Tests used:
Venturia inaequalis = test: Activity against apple scab in-vitro (VII); assay type: cell-based; conditions: 10 ppm, 10 days, 20° C., mycelial growth
Summary of the method: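 V. inaequalis propagules (5×10^4/ml, malt agar-grown) were exposed in half-strength PDB to 10 ppm final test compound delivered in acetone. Growth was scored after incubation for 10 days at 20° C, as a rating relative to untreated or diluent-sprayed controls.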

[1] = tested on: Pseudocercosporella herpotrichoides; test: Activity against wheat eyespot in-vitro (PHI); assay type: cell-based; conditions: 10 ppm, 10 days, 20° C., mycelial growth
Summary of the method: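 Mycelial growth was scored after 10 days at 20 °C against untreated or diluent controls. The broth was half-strength potato dextrose, holding 10 ppm test compound (from acetone) and 5×10^4 fragments/ml of the eyespot fungus.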

Leptosphaeria nodorum = test: Activity against wheat leafspot (LN); assay type: in vivo; conditions: direct therapeutic foliar spray, 600 ppm, 6-8 days
Summary of the method: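 Therapeutic foliar spray: compound at 600 ppm applied to single-leaf wheat (cv Norman) 24 h after inoculation with 1.5×10^6 conidia/ml. Disease control scored after 6-8 days at 22° C and 70% humidity as lesions per leaf versus untreated or diluent-sprayed controls.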

Phytophthora infestans = assay type: in vivo; conditions: tomato, direct protectant foliar spray
Pyricularia oryzae = assay type: in vivo; conditions: rice seedlings, direct therapeutic foliar spray, 600 ppm, 4-5 days
[2] = tested on: Erysiphe graminis f.sp. hordei; test: Direct protectant activity against barley powdery mildew (EGP); assay type: in vivo; conditions: direct protectant foliar spray, 8 days
Summary of the method: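 Rating reflects percentage of leaf area with sporulation compared with untreated or diluent-sprayed controls. Protectant spray was applied to single-leaf barley (cv Golden Promise) 24 h before conidia inoculation. Plants were kept at 18 °C and 40% RH throughout, with 8 days of disease development.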

[3] = tested on: Erysiphe graminis f.sp. hordei; test: Activity against barley powdery mildew, direct therapeutic (EGT); assay type: in vivo; conditions: direct therapeutic foliar spray, 600 ppm, up to 7 days
Summary of the method: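 A curative spray at 600 ppm was applied to single-leaf Golden Promise barley inoculated with powdery mildew conidia the previous day. After up to 7 days at 18 °C and 40% humidity, disease control was rated from percent leaf area sporulating relative to untreated or diluent-sprayed controls.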

Rhizoctonia solani = test: Activity against Rhizoctonia in-vitro (RSI); assay type: cell-based; conditions: 10 ppm, 10 days, 20° C., mycelial growth
Summary of the method: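 Compound at a final 10 ppm (acetone vehicle) in half-strength PDB, inoculated with 5×10^4 fragments/ml of shaken-culture R. solani mycelium. After incubation at 20° C for 10 days, growth scored as a rating versus untreated or diluent-treated controls.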

Plasmopara viticola = test: Antisporulant activity against vine downy mildew (PVA); assay type: in vivo; conditions: vine leaves, antisporulant foliar spray, 600 ppm, 750 l/ha
Summary of the method: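 Cabernet Sauvignon vines (~8 cm) inoculated on lower leaf surfaces with 5×10^4 zoosporangia/ml, held 24 h at 21° C high humidity then 24 h glasshouse. Infected leaves sprayed underside with 600 ppm compound in 1:1 water/acetone, 0.04% Tween 20, 750 l/ha; 96 h glasshouse, 24 h humidity. Sporulating leaf area rated versus control.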

Alternaria solani = test: Activity against tomato early blight (AS); assay type: in vivo; conditions: Table VI; tomato seedlings, contact prophylactic foliar spray, 4 days
Summary of the method: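 Plants were challenged with A. solani conidia (10^4 spores/ml) 24 h after a protective foliar spray of compound in 50:50 acetone/water plus 0.04% Tween 20. Held humid at 21° C for 4 days, then percent leaf area with lesions was scored as a rating relative to controls.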

Botrytis cinerea = test: Direct protectant activity against broad bean grey mould (BCB); assay type: in vivo; conditions: direct protectant foliar spray, 600 ppm, 4 days
Summary of the method: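 Protectant foliar test: lesion coverage assessed 4 days after inoculation and rated relative to untreated or diluent-sprayed plants. Compound applied at 600 ppm to cv The Sutton leaves 24 h before 10^6 conidia/ml suspension; incubation at 22 °C in high humidity.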

Row | SMILES | disease control rating VII (Venturia inaequalis) | disease control rating PHI [1] | disease control rating LN (Leptosphaeria nodorum) | disease control rating PIP (Phytophthora infestans) | disease control rating PO (Pyricularia oryzae) | disease control rating EGP [2] | disease control rating EGT [3] | disease control rating RSI (Rhizoctonia solani) | disease control rating PVA (Plasmopara viticola) | disease control rating AS (Alternaria solani) | disease control rating BCB (Botrytis cinerea)
1 | CCC(C)(C)C1CCC2(CC1)CC(N1CC(C)CC(C)C1)CO2 (stereo not shown) [Compound 52] | 1 (about 50-80% disease control) | 1 (about 50-80% disease control) | 0 (less than 50% disease control) | 0 (less than 50% disease control) | 0 (less than 50% disease control) | 2 (greater than 80% disease control) | 2 (greater than 80% disease control) | 1 (about 50-80% disease control) | 0 (less than 50% disease control) | 0 (less than 50% disease control) | 0 (less than 50% disease control)
2 | CCC(C)(C)C1CCC2(CC1)CC(N1CC(C)OC(C)C1)CO2 (stereo not shown) [Compound 53] | 1 (about 50-80% disease control) | 1 (about 50-80% disease control) | 0 (less than 50% disease control) | 0 (less than 50% disease control) | 0 (less than 50% disease control) | 2 (greater than 80% disease control) | 2 (greater than 80% disease control) | 0 (less than 50% disease control) | 0 (less than 50% disease control) | 0 (less than 50% disease control) | 1 (about 50-80% disease control)
3 | CCCCCNC1COC2(CCC(c3ccccc3)CC2)C1 (stereo not shown) [Compound 54] | 1 (about 50-80% disease control) | 0 (less than 50% disease control) | 0 (less than 50% disease control) | 0 (less than 50% disease control) | 0 (less than 50% disease control) | 2 (greater than 80% disease control) | 2 (greater than 80% disease control) | 0 (less than 50% disease control) | 0 (less than 50% disease control) | 0 (less than 50% disease control) | 0 (less than 50% disease control)
4 | CCCCN(CCCC)C1COC2(CCC(c3ccccc3)CC2)C1 (stereo not shown) [Compound 55] | 1 (about 50-80% disease control) | 0 (less than 50% disease control) | 1 (about 50-80% disease control) | 0 (less than 50% disease control) | 0 (less than 50% disease control) | 2 (greater than 80% disease control) | 2 (greater than 80% disease control) | 0 (less than 50% disease control) | 0 (less than 50% disease control) | 0 (less than 50% disease control) | 2 (greater than 80% disease control)
5 | c1ccc(C2CCC3(CC2)CC(NC2CCCCC2)CO3)cc1 (stereo not shown) [Compound 56] | 1 (about 50-80% disease control) | 0 (less than 50% disease control) | 2 (greater than 80% disease control) | 0 (less than 50% disease control) | 0 (less than 50% disease control) | 2 (greater than 80% disease control) | 2 (greater than 80% disease control) | 0 (less than 50% disease control) | 0 (less than 50% disease control) | 0 (less than 50% disease control) | 2 (greater than 80% disease control)
6 | CC1CC(C)CN(C2COC3(CCC(c4ccccc4)CC3)C2)C1 (stereo not shown) [Compound 57] | 1 (about 50-80% disease control) | 0 (less than 50% disease control) | 1 (about 50-80% disease control) | 0 (less than 50% disease control) | 0 (less than 50% disease control) | 2 (greater than 80% disease control) | 2 (greater than 80% disease control) | 0 (less than 50% disease control) | 0 (less than 50% disease control) | 0 (less than 50% disease control) | 0 (less than 50% disease control)
7 | CC1CN(C2COC3(CCC(c4ccccc4)CC3)C2)CC(C)O1 (stereo not shown) [Compound 58] | 1 (about 50-80% disease control) | 0 (less than 50% disease control) | 2 (greater than 80% disease control) | 0 (less than 50% disease control) | 0 (less than 50% disease control) | 2 (greater than 80% disease control) | 2 (greater than 80% disease control) | 0 (less than 50% disease control) | 0 (less than 50% disease control) | 0 (less than 50% disease control) | 0 (less than 50% disease control)
8 | CCCCCCN(C)C1COC2(CCCCC2)C1 (stereo not shown) [Compound 59] | 0 (less than 50% disease control) | 0 (less than 50% disease control) | 0 (less than 50% disease control) | 0 (less than 50% disease control) | 0 (less than 50% disease control) | 2 (greater than 80% disease control) | 2 (greater than 80% disease control) | 0 (less than 50% disease control) | 0 (less than 50% disease control) | 0 (less than 50% disease control) | 0 (less than 50% disease control)

From patent US5591741A, “Fungicidal spiroheterocyclic derivatives” (American Cyanamid Company, priority 1993, dated 1997)
